Tests used:
[1] = system: neuro2A cells; assay: neurite outgrowth in Neuro2a cells; format: cell-based; settings: for effect on resveratrol-stimulated neurite outgrowth: resveratrol 10 μM, Compound C 10 μM, SIRT1 inhibitors, STO 609 2.5 μM or dnAMPK expression
Method: FIG. 11A-D illustrates the resveratrol and AICAR stimulation of neurite outgrowth in Neuro2a cells. Neuro2a cells were switched to serum-starvation medium (medium containing 0.2% FCS) and treated with DMSO (vehicle control), resveratrol (10 μM) or AICAR (1 mM). (A) Serum deprivation of Neuro2a cells results in growth of short neurites that increase in length over 72 h. (B) Resveratrol induced rapid neurite outgrowth resulting in elaborate neurite network formation by 48 h. (C) AICAR stimulated extensive neurite outgrowth similar to that observed with resveratrol. (D).
FIG. 12A-M illustrates the dependency of resveratrol-induced neurite outgrowth and mitochondrial biogenesis on AMPK. Neuro2a cells were infected with lentivirus expressing GFP only (FUGW, control), dominant negative AMPK (dnAMPK) or constitutively active AMPK (caAMPK). Three days later cells were shifted to serum-starvation medium containing DMSO (control) or resveratrol (10 μM). In addition, uninfected Neuro2a cells in serum-starvation medium were treated with resveratrol alone, the AMPK inhibitor Compound C (CC, Biomol International L.P. (Plymouth Meeting, Pa.)) (10 μM) alone or with resveratrol and CC together. Images of the cultures captured in bright field and green fluorescence were overlaid to visualize neurite outgrowth. […] Neurite length in cells treated with caAMPK+resveratrol is also shown (G). […] Values were normalized to the 18S transcript. Data shown is representative of two independent experiments.
(§1) Cell culture and Reagents. Neuro2 cells obtained from ATCC were grown in MEM with 1.5 g/L sodium bicarbonate, 0.1 mM nonessential amino acids, 0.1 mM sodium pyruvate, 2 mM L-glutamine with 10% FCS. For differentiation, cells were switched to serum-starvation medium (containing 0.2% FCS). For neurite outgrowth measurements, experiments were done in quadruplicate and 100 neurites per well were randomly measured using the Metamorph software. Dorsal root ganglia sensory and cortical neurons were established from E13.5 mouse embryos, maintained in neurobasal medium supplemented with B27 (and NGF for DRG neurons) and infected with lentiviruses as described (Araki et al., 2004, Science 305:1010-1013; Hawley et al., 2005, Cell Metab 2:21-23). Resveratrol was a gift from Sirtris Pharmaceuticals (Cambridge Mass.) and AICAR was obtained from Toronto Research (North York, Canada). Splitomycin and Compound C were purchased from Biomol (Plymouth Meeting, Pa.) and Calbiochem (San Diego, Calif.). Sirtinol and nicotinamide were purchased from Sigma (Saint Louis, Mo.)
Neuro2a cells are a widely used as in vitro model of neuronal differentiation. These cells cease to proliferate and begin to differentiate, as evidenced by neurite outgrowth, in response to serum starvation, retinoic acid, or growth factors like neurotrophins and GDNF family ligands. […] Neuro2a cells grown under serum starvation conditions (0.2% fetal calf serum) were treated with AICAR (1 mM) or resveratrol (10 μM).
Since resveratrol activated AMPK and altered the differentiation of Neuro2a cells, we next asked whether AMPK activity was required for resveratrol-induced neurite outgrowth. To address this issue, we infected Neuro2a cells with lentivirus expressing either GFP alone (FUGW-control) or dominant negative AMPK (dnAMPK). After 3 days growth to allow robust lentiviral transgene expression, the medium was replaced with serum starvation medium. […] Resveratrol-induced neurite outgrowth was reduced in the presence of the AMPK pharmacological inhibitor Compound C (CC 10 μM) further supporting the importance of AMPK activity for resveratrol-induced neurite outgrowth.

[2] = system: AMPK; assay: AMPK and ACC phosphorylation in cortical neurons; format: cell-based, mouse; settings: for effect on resveratrol-induced AMPK phosphorylation: cortical neurons, resveratrol 10 μM, 2 h
Description: FIG. 16A-F illustrates that resveratrol activates AMP kinase in cortical neurons through Lkb1 and CaMKKβ. (A) Cortical neuron cultures were established from E 13.5 Lkb1 flox/flox embryos and infected with lentivirus expressing Cre recombinase (FCIV-Cre) or GFP only (FUGW control). Lentiviral infection of cortical neurons was monitored by GFP fluorescence (A). […] Lkb1 flox/flox cortical neurons were infected with FUGW or FCIV-Cre and treated as indicated. AMPK or ACC was immunoprecipitated from neuronal lysates and western blots were probed with the respective phospho-specific antibodies. […] Lysates from AICAR treated cortical neurons is included as a positive control. (E, F) Embryonic cortical neurons were cultured from wild type and SIRT1-deficient littermates derived from SIRT1 heterozygous matings. […] Levels of total AMPK and ACC are shown in the bottom panels of C, D, E and F.
as §1
Plasmids and viruses. The dominant negative (dnAMPK) and constitutively active (caAMPK) plasmids were gifts from Russell Jones (University of Pennsylvania, Philadelphia Pa.), and pCXN-Cre was a gift of Inder Verma (Salk Institute, San Diego, Calif.). All constructs were subcloned into the lentiviral shuttle vector FCIV and verified by nucleotide sequence analysis. Viruses were prepared as previously described (Araki et al., 2004, Science 305:1010-1013). Protein and mRNA analysis. Immunoprecipitations and western blot analysis were performed by standard methods using antibodies directed against total AMPK, phosphorylated AMPK, total ACC or phosphorylated ACC that were obtained from Cell Signaling Technology (Beverley, Mass.). The phospho-AMPK antibody detects endogenous AMPK α1 and α2 when phosphorylated at threonine 172. The LKB1 antibody was purchased from Upstate (Lake Placid, N.Y.). Quantitative RT-PCR analysis was performed using Sybr-Green methodology on a model 7700 instrument (Applied Biosystems) as previously described (Araki et al., 2004, Science 305:1010-1013). Primer sequences were those used in previous studies (Motoshima, et al., 2006, J Physiol 574:63-71).
Resveratrol activation of AMPK in Neuro2a cells along with the crucial role of AMPK in promoting neurite outgrowth in these cells encouraged us to examine this pathway in primary neurons. We treated E13.5 mouse dorsal root ganglia (DRG) sensory and cortical neuron cultures with resveratrol (10 μM) or AICAR (1 mM). […]

SMILES | effect on resveratrol-stimulated neurite outgrowth [1] | effect on resveratrol-induced AMPK phosphorylation [2] | neurite outgrowth compared to serum starvation alone ([1]; 0.2% FCS, resveratrol 10 μM or AICAR 1 mM) | phosphorylation of AMPK and ACC ([2]; E13.5 cortical neurons, 10 μM)
NC(=O)c1cccnc1 [Nam, nicotinamide] | had no effect | none of the SIRT inhibitors |  | 
O=C(O)c1ccc2c3c1cccc3c(=O)n1c3ccccc3nc21 [STO 609] | had no effect | did inhibit AMPK and ACC phosphorylation |  | 
CC(NC(=O)c1ccccc1/N=C/c1c(O)ccc2ccccc12)c1ccccc1 (stereo not shown) [Sirtinol] | had no effect | none of the SIRT inhibitors |  | 
Oc1ccc(C=Cc2cc(O)cc(O)c2)cc1 [resveratrol] |  |  | increased neurite outgrowth | stimulated phosphorylation of AMPK and ACC
O=C1CCc2c(ccc3ccccc23)O1 [splitomycin] | had no effect | none of the SIRT inhibitors |  | 
